From patent US5283245A, “Heterocyclic thiazole derivatives and pharmaceutical compositions comprising said derivatives” (Imperial Chemical Industries PLC, priority 1989, dated 1994)

What was measured:
5-LO [1] = molecular target: T1, 5-LO (Homo sapiens, UniProt P09917); assay: heparinised human blood challenged with calcium ionophore A23187, LTB4 radioimmunoassay (test b); type: cell-based; conditions: A23187 challenge
T1 construct: incubating a test compound with heparinised human blood; endogenous in cells; host or cells: heparinised whole human blood (leukocytes, by own knowledge)
T1 sequence (P09917 1-674): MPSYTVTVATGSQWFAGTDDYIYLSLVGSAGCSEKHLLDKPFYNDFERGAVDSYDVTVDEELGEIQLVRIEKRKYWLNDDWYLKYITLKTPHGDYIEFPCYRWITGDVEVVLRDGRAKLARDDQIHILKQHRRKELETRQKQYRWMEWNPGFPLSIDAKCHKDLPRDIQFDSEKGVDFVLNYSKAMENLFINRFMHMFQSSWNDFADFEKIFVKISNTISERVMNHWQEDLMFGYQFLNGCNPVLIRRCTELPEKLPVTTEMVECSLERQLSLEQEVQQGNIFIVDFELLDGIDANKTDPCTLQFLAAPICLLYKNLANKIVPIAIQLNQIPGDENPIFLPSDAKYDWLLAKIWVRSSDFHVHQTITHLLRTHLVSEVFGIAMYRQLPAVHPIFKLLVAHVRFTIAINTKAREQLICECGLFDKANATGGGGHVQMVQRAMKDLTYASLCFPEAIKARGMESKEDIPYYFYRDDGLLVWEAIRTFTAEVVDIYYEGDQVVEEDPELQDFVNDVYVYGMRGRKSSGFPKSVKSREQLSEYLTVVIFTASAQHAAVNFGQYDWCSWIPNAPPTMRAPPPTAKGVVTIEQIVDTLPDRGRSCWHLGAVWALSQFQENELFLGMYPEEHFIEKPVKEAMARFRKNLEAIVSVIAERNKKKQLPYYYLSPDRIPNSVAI
Procedure: (§1) b) An in vitro assay system involving incubating a test compound with heparinised human blood, prior to challenge with the calcium ionophore A23187 and then indirectly measuring the inhibitory effects on 5-LO by assaying the amount of LTB4 using the specific radioimmunoassay described by Carey and Forder (F. Carey and R. A. Forder, Brit. J. Pharmacol. 1985, 84, 34P) which involves the use of a protein-LTB4 conjugate produced using the procedure of Young et alia (Prostaglandins, 1983, 26(4),605-613). The effects of a test compound on the enzyme cyclooxygenase (which is involved in the alternative metabolic pathway for arachidonic acid and gives rise to prostaglandins, thromboxanes and related metabolites) may be measured at the same time using the specific radioimmunoassay for thromboxane B2 (TxB2) described by Carey and Forder (see above). This test provides an indication of the effects of a test compound against 5-LO and also cyclooxygenase in the presence of blood cells and proteins. It permits the selectivity of the inhibitory effect on 5-LO or cyclooxygenase to be assessed.

cyclooxygenase = molecular target: T2, cyclooxygenase (Homo sapiens, UniProt P23219); assay: heparinised human blood challenged with calcium ionophore A23187, TxB2 radioimmunoassay (test b); type: cell-based; conditions: A23187 challenge
T2 construct: incubating a test compound with heparinised human blood; endogenous in cells; host or cells: heparinised whole human blood (platelets, by own knowledge)
T2 sequence (P23219 24-599): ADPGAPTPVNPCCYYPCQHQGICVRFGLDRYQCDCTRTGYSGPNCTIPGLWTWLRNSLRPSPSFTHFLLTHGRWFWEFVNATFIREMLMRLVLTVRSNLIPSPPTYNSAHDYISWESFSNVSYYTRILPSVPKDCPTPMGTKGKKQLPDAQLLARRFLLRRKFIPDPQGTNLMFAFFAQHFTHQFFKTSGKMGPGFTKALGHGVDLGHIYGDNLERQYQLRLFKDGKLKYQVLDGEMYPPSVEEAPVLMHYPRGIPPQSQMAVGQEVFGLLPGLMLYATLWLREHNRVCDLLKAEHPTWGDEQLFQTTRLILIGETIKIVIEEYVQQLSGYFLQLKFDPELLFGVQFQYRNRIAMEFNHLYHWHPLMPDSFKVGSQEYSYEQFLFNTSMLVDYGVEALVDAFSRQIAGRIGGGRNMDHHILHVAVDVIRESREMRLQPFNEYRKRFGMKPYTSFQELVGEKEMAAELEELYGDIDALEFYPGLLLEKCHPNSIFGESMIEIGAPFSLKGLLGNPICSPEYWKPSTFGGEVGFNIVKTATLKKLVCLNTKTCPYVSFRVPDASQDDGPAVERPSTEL
Procedure: as §1

5-LO [2] = molecular target: T3, 5-LO (Rattus norvegicus, UniProt P12527); assay: ex vivo assay: administration of compound, blood collection, A23187 challenge, LTB4 radioimmunoassay (test c); type: in vivo; conditions: oral administration
T3 construct: blood collection, heparinisation, challenge with A23187 and radioimmunoassay of LTB4 and TxB2; endogenous in cells
T3 sequence (P12527 1-673): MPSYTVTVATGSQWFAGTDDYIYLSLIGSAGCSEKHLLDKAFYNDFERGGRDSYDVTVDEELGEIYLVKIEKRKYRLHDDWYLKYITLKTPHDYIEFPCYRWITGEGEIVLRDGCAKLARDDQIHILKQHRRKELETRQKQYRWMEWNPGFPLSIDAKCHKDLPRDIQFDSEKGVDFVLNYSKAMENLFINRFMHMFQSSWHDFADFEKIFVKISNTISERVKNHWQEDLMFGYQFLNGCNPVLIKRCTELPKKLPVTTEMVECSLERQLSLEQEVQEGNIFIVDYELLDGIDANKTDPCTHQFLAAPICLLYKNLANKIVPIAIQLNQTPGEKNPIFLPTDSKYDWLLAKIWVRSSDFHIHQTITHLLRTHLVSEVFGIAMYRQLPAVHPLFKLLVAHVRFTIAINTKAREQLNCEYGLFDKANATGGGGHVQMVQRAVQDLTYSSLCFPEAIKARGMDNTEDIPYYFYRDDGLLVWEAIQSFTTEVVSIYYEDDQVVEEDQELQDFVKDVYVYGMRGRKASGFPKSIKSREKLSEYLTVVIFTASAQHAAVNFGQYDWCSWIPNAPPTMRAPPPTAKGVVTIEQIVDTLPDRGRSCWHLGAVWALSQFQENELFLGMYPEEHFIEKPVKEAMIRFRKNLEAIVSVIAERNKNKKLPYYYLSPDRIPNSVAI

IC50 (5-LO [1]): 700 nM
IC50 (cyclooxygenase): > 40000 nM
ED50 (5-LO [2]): 50 mg/kg
SMILES: CCC(OC)(c1cccc(OCC#Cc2ccccn2)c1)c1nccs1 (stereo not drawn) [2-[1-[3-(3-(2-pyridyl)prop-2-yn-1-yloxy)phenyl]-1-methoxypropyl]thiazole]
